Results reported in patent US20020192827A1, “Novel vector for C. glabrata and the use thereof” (priority 2000, published 2002).

System: C. glabrata strain ATCC 200989
Experiment: geneticin resistance growth test on -Ura medium, uninduced and copper-induced
Assay type: cell-based, Candida glabrata
Description: C. C. glabrata strain with expression plasmid pFPG1 lacking or carrying the wildtype neomycin/kanamycin resistance gene (which confers resistance to the antibiotic geneticin), on -Ura media supplemented with 1 mg/ml geneticin.
C. C. glabrata strain with expression plasmid pFPG2 lacking or carrying the wildtype neomycin/kanamycin resistance gene (which confers resistance to the antibiotic geneticin), on -Ura media supplemented with 1 mg/ml geneticin.
The neomycin/kanamycin resistance gene from Tn903 confers resistance of C. glabrata to the antibiotic G418, geneticin (Cormack and Falkow, 1999). The pFPG1-NEO plasmid and empty pFPG1 as a control were transformed into C. glabrata strain ATCC 200989 and tested for geneticin resistance under uninduced and induced conditions (FIG. 3C). […] In this case, induction of the MT-1 promoter in pFPG1 was not absolutely necessary to obtain adequate expression of the NEO gene.
The NEO pFPG2 plasmid and empty pFPG2 as a control were transformed into C. glabrata strain ATCC 200989 and tested for geneticin resistance on -Ura medium under uninduced and induced conditions (FIG. 6).

Question: `CN[C@@H]1[C@@H](O)[C@@H](O[C@@H]2[C@@H](O)[C@H](O[C@H]3O[C@H]([C@@H](C)O)[C@@H](O)[C@H](O)[C@H]3N)[C@@H](N)C[C@H]2N)OC[C@]1(C)O` [geneticin] was tested. Which “geneticin concentration required to suppress growth” value (strain ATCC 200989 with empty pFPG1 plasmid) did it give?
Answer: The value was “about 1 mg/ml”.

Question: What about the “geneticin concentration required to suppress growth” value (strain ATCC 200989 with empty pFPG2 plasmid, -Ura medium) of the same compound?
Answer: The value was “about 1 mg/ml”.
